In brackets after ≈: the same amount, converted by molar mass.
How the values were obtained:
A. baumannii CDC-0036 = assay: microbe, parasite or virus in culture; type: cell-based; conditions: Acinetobacter baumannii, CDC0036, read-out: MIC, A. baumannii CDC-0036
A. baumannii PBP1a = molecular target: T1, A. baumannii PBP1a (Acinetobacter baumannii, UniProt A0ABX6CK30); assay: Bocillin-FL competition binding via gel filtration, A. baumannii PBP1a; conditions: competition binding assay using Bocillin-FL via gel filtration; read-out: A. baumannii PBP1a Potency
T1 sequence (A0ABX6CK30 1-851): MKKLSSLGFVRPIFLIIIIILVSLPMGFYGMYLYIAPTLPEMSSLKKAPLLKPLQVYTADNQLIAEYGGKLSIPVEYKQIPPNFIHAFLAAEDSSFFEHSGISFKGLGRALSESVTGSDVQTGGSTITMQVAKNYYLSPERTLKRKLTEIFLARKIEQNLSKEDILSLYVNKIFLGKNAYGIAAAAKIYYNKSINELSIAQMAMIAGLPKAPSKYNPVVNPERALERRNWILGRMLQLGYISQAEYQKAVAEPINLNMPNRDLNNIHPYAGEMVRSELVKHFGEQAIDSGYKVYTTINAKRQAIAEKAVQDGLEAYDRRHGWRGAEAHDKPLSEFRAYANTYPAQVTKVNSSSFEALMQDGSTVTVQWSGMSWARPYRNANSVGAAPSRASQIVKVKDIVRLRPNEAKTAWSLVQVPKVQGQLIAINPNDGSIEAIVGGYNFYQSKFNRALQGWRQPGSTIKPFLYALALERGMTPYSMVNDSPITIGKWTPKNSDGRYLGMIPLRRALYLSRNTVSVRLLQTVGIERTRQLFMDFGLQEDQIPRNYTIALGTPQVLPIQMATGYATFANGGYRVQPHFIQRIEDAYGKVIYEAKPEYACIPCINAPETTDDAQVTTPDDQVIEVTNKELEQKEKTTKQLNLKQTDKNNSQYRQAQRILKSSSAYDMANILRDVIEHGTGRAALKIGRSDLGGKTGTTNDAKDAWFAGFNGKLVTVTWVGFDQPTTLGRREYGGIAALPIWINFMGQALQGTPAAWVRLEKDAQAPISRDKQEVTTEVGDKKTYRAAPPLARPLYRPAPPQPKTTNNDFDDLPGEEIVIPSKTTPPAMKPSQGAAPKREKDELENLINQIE
Method in brief: (§1)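 Enzyme was pre-incubated with rising inhibitor concentrations, then Bocillin-FL was added and incubated 15 minutes more. Bound probe was separated by gel filtration and fluorescence read. EC50 came from fitting fraction of PBP labelled versus inhibitor concentration to a Hill equation with ymin, ymax and n.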

A. baumannii CDC-0033 = assay: microbe, parasite or virus in culture; type: cell-based; conditions: Acinetobacter baumannii, CDC0033, read-out: MIC, A. baumannii CDC-0033
A. baumannii PBP2 = A. baumannii PBP2 (Acinetobacter baumannii, UniProt D0C8Z9); assay: Bocillin-FL competition binding via gel filtration, A. baumannii PBP2
Chain of A. baumannii PBP2 (D0C8Z9 whole entry): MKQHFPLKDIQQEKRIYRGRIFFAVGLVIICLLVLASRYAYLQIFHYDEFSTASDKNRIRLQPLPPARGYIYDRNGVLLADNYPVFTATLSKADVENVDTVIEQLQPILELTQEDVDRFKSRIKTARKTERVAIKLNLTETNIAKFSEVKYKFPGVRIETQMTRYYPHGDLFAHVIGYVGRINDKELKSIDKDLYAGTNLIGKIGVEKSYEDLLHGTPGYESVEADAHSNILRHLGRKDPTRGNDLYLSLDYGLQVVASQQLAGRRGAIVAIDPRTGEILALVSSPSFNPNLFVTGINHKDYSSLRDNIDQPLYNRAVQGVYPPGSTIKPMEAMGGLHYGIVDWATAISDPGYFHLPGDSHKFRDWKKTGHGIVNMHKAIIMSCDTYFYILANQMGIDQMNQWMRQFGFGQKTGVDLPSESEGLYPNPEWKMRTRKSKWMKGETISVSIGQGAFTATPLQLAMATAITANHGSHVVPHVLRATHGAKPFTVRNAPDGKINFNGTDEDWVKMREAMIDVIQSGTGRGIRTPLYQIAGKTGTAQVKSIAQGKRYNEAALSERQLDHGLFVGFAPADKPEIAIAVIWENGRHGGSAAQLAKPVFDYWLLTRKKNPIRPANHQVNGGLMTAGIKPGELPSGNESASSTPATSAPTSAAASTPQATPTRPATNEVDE
Method in brief: as §1

P. aeruginosa CDC-0095 = assay: microbe, parasite or virus in culture; type: cell-based; conditions: Pseudomonas aeruginosa, CDC0095, read-out: Minimum inhibitory concentration, P. aeruginosa CDC-0095
[1] = system: B. thailandensis ATCC 700388; assay: microbe, parasite or virus in culture; type: cell-based; conditions: Burkholderia thailandensis, ATCC700388, read-out: Minimum inhibitory concentration (MIC), B. thailandensis ATCC 700388

SMILES | MIC (A. baumannii CDC-0036) | EC50 (A. baumannii PBP1a) | MIC (A. baumannii CDC-0033) | EC50 (A. baumannii PBP2) | MIC (P. aeruginosa CDC-0095) | MIC [1]
O=C(N[C@@H](C(=O)N[C@H]1Cc2cccc(C(=O)O)c2OB1O)c1ccc(P(=O)(O)O)cc1)c1ccc(O)c(O)c1Cl [Example 49, (R)-3-((R)-2-(2-chloro-3,4-dihydroxybenzamido)-2-(4-phosphonophenyl)acetamido)-2-hydroxy-3,4-dihydro-2H-benzo[e][1,2]oxaborinine-8-carboxylic acid] | > 128 µg/mL | 10 to 50 µM | > 128 µg/mL | 10 to 50 µM | < 1 µg/mL | 2 to 4 µg/mL (≈ 3.39 to 6.77 µM)
O=C(NCCN1CCN(C(=O)NC(C(=O)N[C@H]2Cc3ccc(F)c(C(=O)O)c3OB2O)c2ccc(P(=O)(O)O)cc2)C(=O)C1=O)c1ccc(O)c(O)c1Cl (stereo partly drawn) [Example 120, (3R)-3-(2-(4-(2-(2-chloro-3,4-dihydroxybenzamido)ethyl)-2,3-dioxopiperazine-1-carboxamido)-2-(4-phosphonophenyl)acetamido)-7-fluoro-2-hydroxy-3,4-dihydro-2H-benzo[e][1,2]oxaborinine-8-carboxylic acid] | 8 to 16 µg/mL (≈ 10.1 to 20.2 µM) | 10 to 50 µM | 2 to 4 µg/mL (≈ 2.53 to 5.05 µM) | 10 to 50 µM | < 1 µg/mL | < 1 µg/mL
O=C(O)c1c(F)ccc2c1OB(O)[C@@H](NC(=O)C(NC(=O)N1CCN(Cc3ccc(O)c(O)c3Cl)C(=O)C1=O)c1ccc(P(=O)(O)O)cc1)C2 (stereo partly drawn) [Example 8, (3R)-3-(2-(4-(2-chloro-3,4-dihydroxybenzyl)-2,3-dioxopiperazine-1-carboxamido)-2-(4-phosphonophenyl)acetamido)-7-fluoro-2-hydroxy-3,4-dihydro-2H-benzo[e][1,2]oxaborinine-8-carboxylic acid] | 2 to 4 µg/mL (≈ 2.72 to 5.44 µM) | 10 to 50 µM | < 1 µg/mL | 10 to 50 µM | < 1 µg/mL | < 1 µg/mL
CS(=O)(=O)N1CCN(C(=O)N[C@@H](C(=O)N[C@H]2Cc3ccc(F)c(C(=O)O)c3OB2O)c2ccc(P(=O)(O)O)c(F)c2)C1=O (single isomer, unassigned) [Example 19] | > 128 µg/mL | – | > 128 µg/mL | – | > 128 µg/mL | 32 to 64 µg/mL (≈ 49.5 to 99 µM)
O=C(O)c1c(F)ccc2c1OB(O)[C@@H](NC(=O)C(NC(=O)N1CCN(Cc3cc(F)c(O)c(O)c3Cl)C(=O)C1=O)c1ccc(P(=O)(O)O)cc1)C2 (stereo partly drawn) [Example 45, (3R)-3-(2-(4-(2-chloro-5-fluoro-3,4-dihydroxybenzyl)-2,3-dioxopiperazine-1-carboxamido)-2-(4-phosphonophenyl)acetamido)-7-fluoro-2-hydroxy-3,4-dihydro-2H-benzo[e][1,2]oxaborinine-8-carboxylic acid] | < 1 µg/mL | 10 to 50 µM | < 1 µg/mL | < 10 µM | < 1 µg/mL | < 1 µg/mL
CS(=O)(=O)N1CCN(C(=O)NC(C(=O)N[C@H]2Cc3cccc(C(=O)O)c3OB2O)c2ccc(P(=O)(O)O)c(O)c2)C1=O (stereo partly drawn) [Example 17, (3R)-2-hydroxy-3-(2-(3-hydroxy-4-phosphonophenyl)-2-(3-(methylsulfonyl)-2-oxoimidazolidine-1-carboxamido)acetamido)-3,4-dihydro-2H-benzo[e][1,2]oxaborinine-8-carboxylic acid] | – | – | – | 50 to 250 µM | – | –
O=C(O)c1cccc2c1OB(O)[C@@H](NC(=O)C(NC(=O)N1CCN(Cc3ccc(O)c(O)c3Cl)C(=O)C1=O)c1ccc(P(=O)(O)O)cc1)C2 (stereo partly drawn) [Example 24, (3R)-3-(2-(4-(2-chloro-3,4-dihydroxybenzyl)-2,3-dioxopiperazine-1-carboxamido)-2-(4-phosphonophenyl)acetamido)-2-hydroxy-3,4-dihydro-2H-benzo[e][1,2]oxaborinine-8-carboxylic acid] | < 1 µg/mL | 10 to 50 µM | < 1 µg/mL | 10 to 50 µM | < 1 µg/mL | < 1 µg/mL
O=C(O)c1c(F)ccc2c1OB(O)[C@@H](NC(=O)C(NC(=O)N1CCN(Cc3ccc(O)c(O)c3Cl)C1=O)c1ccc(P(=O)(O)O)cc1)C2 (stereo partly drawn) [Example 46, (3R)-3-(2-(3-(2-chloro-3,4-dihydroxybenzyl)-2-oxoimidazolidine-1-carboxamido)-2-(4-phosphonophenyl)acetamido)-7-fluoro-2-hydroxy-3,4-dihydro-2H-benzo[e][1,2]oxaborinine-8-carboxylic acid] | – | < 10 µM | – | 10 to 50 µM | < 1 µg/mL | < 1 µg/mL
O=C(O)c1c(F)ccc2c1OB(O)[C@@H](NC(=O)C(NC(=O)N1CCN(Cc3ccc(O)c(O)c3Cl)C(=O)C1=O)c1ccc(P(=O)(O)O)c(F)c1)C2 (stereo partly drawn) [Example 23, (3R)-3-(2-(4-(2-chloro-3,4-dihydroxybenzyl)-2,3-dioxopiperazine-1-carboxamido)-2-(3-fluoro-4-phosphonophenyl)acetamido)-7-fluoro-2-hydroxy-3,4-dihydro-2H-benzo[e][1,2]oxaborinine-8-carboxylic acid] | < 1 µg/mL | 10 to 50 µM | < 1 µg/mL | < 10 µM | < 1 µg/mL | < 1 µg/mL
